Data reported in publication PMC13372681, “A natural depsipeptide antibiotic binds the E-site of the bacterial ribosome” (Nature, 2026).
Values after ≈ are worked out from the molar mass of the structure shown. Read-outs that look alike come from different tables or passages of the source. Where a SMILES comes first, the peptide text is derived from it. Bridges are numbered along the chain shown (N, C = ends). [ ]: non-standard residue; d: D form. dOrn = NCCC[C@@H](N)C(=O)O

Tests used:
[1] = test system: Bifidobacterium breve GC96; test: MIC, anaerobic gut bacteria; assay type: cell-based; conditions: gut isolate, BHI + L-cysteine, haemin, vitamin K, 37 °C
Blautia obeum GC925 = test: MIC, anaerobic gut bacteria; assay type: cell-based; conditions: gut isolate, BHI + L-cysteine, haemin, vitamin K, 37 °C
E. coli C1507 = conditions: broth microdilution, Ca+ MHB Medium; MDR clinical isolate
S. aureus USA 300 = conditions: broth microdilution, MHBII

C[C@@H](O)[C@@H]1NC(=O)[C@@H](CCCNC(=N)N)NC(=O)[C@@H](CCCNC(=N)N)NC(=O)[C@@H](CC(N)=O)NC(=O)[C@@H](NC(=O)[C@@H](Cc2ccccc2)NC(=O)[C@@H](CCCN)NC(=O)[C@H](N)CCCNC(=N)N)[C@@H](C)OC(=O)[C@H](Cc2c[nH]cn2)NC1=O [MKM-A, manikomycin] (H-[dR][dOrn][dF]T[dN][dR][dR]TH; ester 4-C)
MIC [1]: 256 µg/mL
MIC (Blautia obeum GC925): >256 µg/mL
MIC (E. coli C1507): 32 µg/mL (≈ 27 µM)
MIC (P. aeruginosa PAO1; PAO1): >64 µg/mL
MIC (P. aeruginosa PAO1; broth microdilution, Ca+ MHB Medium): >128 µg/mL
MIC (P. aeruginosa PAO1; broth microdilution, MOPS Minimal Medium): >128 µg/mL
MIC (S. aureus USA 300): 128 µg/mL (≈ 108 µM)
